{"source": "patent US9433595B2", "about": "“Phytoestrogenic compositions for preventing or treating symptoms associated with menopause” (Natural Endotech Co., Ltd., priority 2008, dated 2016)", "system": "SaOS-2 cells", "assay": "Estrogen-specific ALP (alkaline phosphatase) induction in SaOS-2 osteoblast cells", "type": "cell-based", "details": "conclusion drawn from ALP induction in SaOS-2 cells", "experimental": "To verify the effect of the compound of the present invention, non-reproductive tract target tissue response was carried out for measuring estrogenecity. […]\nIn this regard, the estrogenic activity of the compounds of the experimental groups as described above in the Example 1 was analyzed using SaOS-2 cells in this study.\nFor experiments, SaOS-2 cell line was purchased from Korean Type Culture Collection (KTCC). […] Thereafter, 50 μl of cell lysis buffer (100 mM Tris, 100 mM NaCl, 1 mM EDTA) was added to the culture media of each well and then, 150 μl of 30 mM p-nitrophenyl phosphate (Merk, Germany) was thoroughly mixed with shaking, followed by measuring the absorbance at 405 nm for 10 min at an interval of 50 sec. ALP induction was calculated as follows: % induction=[(Slopesample)/(Slope17β-estradiol)]×100. […]", "data": [{"smiles": "O=C(O)/C=C/c1ccccc1", "note": "[cinnamic acid]", "values": [{"measurement": "estrogenic activity", "result": "remarkable estrogenic activity"}]}, {"smiles": "COC(=O)C1=CO[C@@H](O[C@H]2O[C@@H](CO)[C@H](O)[C@@H](O)[C@@H]2O)C2C1[C@H](O)C[C@]2(C)O", "note": "(some centres unmarked) [shanzhiside methylester]", "values": [{"measurement": "estrogenic activity", "result": "remarkable estrogenic activity"}]}]}
